Laboratory results from patent publication US4045563A, “Substituted 2-[pyridylalkylenesulfinyl]-benzimidazoles with gastric acid secretion inhibiting effects” (AB Hassle, priority 1975, dated 1977).

Test system: gastric acid secretion
Test: Inhibition of pentagastrin-induced gastric acid secretion in anesthetized dogs (modified perfusion technique, intraduodenal test compound)
Format: in vivo
Conditions: dog, pentagastrin-stimulated
Protocol: To test the gastric acid secretion activity, a modified perfusion technique was performed using dogs as test animals. An anesthetized dog was fitted with one tube going through the esophagus to the stomach for instillation of fluid, and a second tube extending through the duodenum by way of the ligated pylorus for fluid drainage. Every 15 minutes, 5 ml/kg body weight of a saline solution was introduced into the test animal, and drained samples collected and titrated to pH 7.0 with 0.04N NaOH using a radiometer automatic titrator to calculate the acid output.
Gastric acid secretion was induced by pentagastrin by administering 1-2 μg/kg per hour, giving a submaximal secretory response. Test compounds in a 0.5% Methocel (methyl cellulose) suspension were introduced into the duodenum close to the ligation at least two hours following onset of stimulation, when the secretion had reached a steady level for three consecutive 15 minute periods.
The following gastric acid inhibiting effect data were obtained for a number of compounds tested according to the method described.

Structure (SMILES) | inhibition in vivo at 5 mg/kg (Canis lupus familiaris) | other results
Cc1ccc(C[S+]([O-])c2nc3cc(C)ccc3[nH]2)nc1 (stereo not shown) [Example 26] | > 75% | 
Cc1ccnc(C[S+]([O-])c2nc3cc(C)ccc3[nH]2)c1 (stereo not shown) [Example 42] | > 75% | 
CCC(c1ccccn1)[S+]([O-])c1nc2ccccc2[nH]1 (stereo not shown) [Example 28] | 80% | inhibition in vivo at 2 mg/kg (Canis lupus familiaris, dose 2 mg/kg): 65%
[O-][S+](Cc1ccccn1)c1nc2ccccc2[nH]1 (stereo not shown) [Example 1, 2-[2-pyridylmethylsulfinyl]-benzimidazole] |  | inhibited gastric acid secretion (1 mg per kg body weight): 90%
CCc1ccc(C[S+]([O-])c2nc3cc(C)ccc3[nH]2)nc1 (stereo not shown) [Example 44] | 95% | 
Cc1ccc2[nH]c([S+]([O-])Cc3ccccn3)nc2c1 (stereo not shown) [Example 21] | 95% | inhibition in vivo at 1 mg/kg (Canis lupus familiaris): 50%
Cc1cc(C)c2nc([S+]([O-])Cc3ccccn3)[nH]c2c1 (stereo not shown) [Example 2] | 94% | 
Cc1cccnc1C[S+]([O-])c1nc2ccccc2[nH]1 (stereo not shown) [Example 43] | > 75% | 
[O-][S+](Cc1ccccn1)c1nc2c(Cl)cccc2[nH]1 (stereo not shown) [Example 53] | 30% | 
[O-][S+](Cc1ccccn1)c1nc2cc(Cl)ccc2[nH]1 (stereo not shown) [Example 22] | 35% | 
CCCc1ccc2[nH]c([S+]([O-])Cc3ccccn3)nc2c1 (stereo not shown) [Example 25] | 15% | 
Cc1cc(Cl)cc2[nH]c([S+]([O-])Cc3ccccn3)nc12 (stereo not shown) [Example 4] |  | inhibition in vivo at 10 mg/kg (Canis lupus familiaris): 41%
CCc1ccc2[nH]c([S+]([O-])Cc3ccccn3)nc2c1 (stereo not shown) [Example 3] | 50% | 
CC(c1ccccn1)[S+]([O-])c1nc2ccccc2[nH]1 (stereo not shown) [Example 16] | 96% | inhibition in vivo at 1 mg/kg (Canis lupus familiaris): 37%
CCc1ccc2[nH]c([S+]([O-])C(C)c3ccccn3)nc2c1 (stereo not shown) [Example 30] | 60% | 
CCc1ccc(C[S+]([O-])c2nc3ccccc3[nH]2)nc1 (stereo not shown) [Example 45] | 90% | 
Cc1cc2nc([S+]([O-])C(C)c3ccccn3)[nH]c2cc1C (stereo not shown) [Example 55] | 30% | 
CC(C)c1ccc2[nH]c([S+]([O-])Cc3ccccn3)nc2c1 (stereo not shown) [Example 23] |  | inhibition in vivo at 10 mg/kg (Canis lupus familiaris): 80%
CCOC(=O)c1ccc2[nH]c([S+]([O-])Cc3ccccn3)nc2c1 (stereo not shown) [Example 9] | 8% | 
